Legend:
Format in all cases: functional
HCT-15 [1] = test: Growth inhibition of human HCT15 cells assessed as cell growth at 10^-7 M after 48 hrs by sulforhodamine B assay; settings: HCT-15, 48 h, read-out: Activity
HCT-15 [2] = test: Growth inhibition of human HCT15 cells assessed as cell growth at 10^-5 M after 48 hrs by sulforhodamine B assay; settings: HCT-15, 48 h, read-out: Activity
[3] = Growth inhibition of human HCC2998 cells assessed as cell growth at 10^-4 M after 48 hrs by sulforhodamine B assay; settings: HCC 2998, 48 h, read-out: Activity
MDA-MB-435 [4] = test: Growth inhibition of human MDA-MB-435 cells assessed as cell growth at 10^-8 M after 48 hrs by sulforhodamine B assay; settings: MDA-MB-435, 48 h, read-out: Activity
A498 [5] = test: Growth inhibition of human A498 cells assessed as cell growth at 10^-8 M after 48 hrs by sulforhodamine B assay; settings: A498, 48 h, read-out: Activity
A549 = test: Growth inhibition of human A549/ATCC cells assessed as cell growth at 10^-8 M after 48 hrs by sulforhodamine B assay; settings: A549, 48 h, read-out: Activity
CCRF-CEM = test: Growth inhibition of human CCRF-CEM cells assessed as cell growth at 10^-8 M after 48 hrs by sulforhodamine B assay; settings: read-out: Activity
UO-31 = test: Growth inhibition of human UO31 cells assessed as cell growth at 10^-7 M after 48 hrs by sulforhodamine B assay; settings: UO-31, 48 h, read-out: Activity
MDA-MB-435 [6] = test: Growth inhibition of human MDA-MB-435 cells assessed as cell growth at 10^-7 M after 48 hrs by sulforhodamine B assay; settings: MDA-MB-435, 48 h, read-out: Activity
A498 [7] = test: Growth inhibition of human A498 cells assessed as cell growth at 10^-7 M after 48 hrs by sulforhodamine B assay; settings: A498, 48 h, read-out: Activity
MDA-MB-468 = test: Growth inhibition of human MDA-MB-468 cells assessed as cell growth at 10^-8 M after 48 hrs by sulforhodamine B assay; settings: MDA-MB-468, 48 h, read-out: Activity
OVCAR-8 [8] = test: Growth inhibition of human OVCAR8 cells assessed as cell growth at 10^-7 M after 48 hrs by sulforhodamine B assay; settings: OVCAR-8, 48 h, read-out: Activity
RXF 393 [9] = test: Growth inhibition of human RXF393 cells assessed as cell growth at 10^-7 M after 48 hrs by sulforhodamine B assay; settings: RXF 393, 48 h, read-out: Activity
MDA-MB-435 [10] = test: Growth inhibition of human MDA-MB-435 cells assessed as cell growth at 10^-4 M after 48 hrs by sulforhodamine B assay; settings: MDA-MB-435, 48 h, read-out: Activity
MOLT-4 = test: Growth inhibition of human MOLT4 cells assessed as cell growth at 10^-5 M after 48 hrs by sulforhodamine B assay; settings: MOLT-4, 48 h, read-out: Activity
SR [11] = test: Growth inhibition of human SR cells assessed as cell growth at 10^-8 M after 48 hrs by sulforhodamine B assay; settings: read-out: Activity
SK-MEL-28 = test: Growth inhibition of human SK-MEL-28 cells assessed as cell growth at 10^-6 M after 48 hrs by sulforhodamine B assay; settings: SK-MEL-28, 48 h, read-out: Activity
NCI-H226 = test: Growth inhibition of human NCI-H226 cells assessed as cell growth at 10^-7 M after 48 hrs by sulforhodamine B assay; settings: NCI-H226, 48 h, read-out: Activity
OVCAR-8 [12] = test: Growth inhibition of human OVCAR8 cells assessed as cell growth at 10^-6 M after 48 hrs by sulforhodamine B assay; settings: OVCAR-8, 48 h, read-out: Activity
MCF7 [13] = test: Growth inhibition of human MCF7 cells assessed as cell growth at 10^-6 M after 48 hrs by sulforhodamine B assay; settings: MCF7, 48 h, read-out: Activity
SR [14] = test: Growth inhibition of human SR cells assessed as cell growth at 10^-5 M after 48 hrs by sulforhodamine B assay; settings: read-out: Activity
NCI-H460 [15] = test: Growth inhibition of human NCI-H460 cells assessed as cell growth at 10^-7 M after 48 hrs by sulforhodamine B assay; settings: NCI-H460, 48 h, read-out: Activity
BT-549 = test: Growth inhibition of human BT549 cells assessed as cell growth at 10^-7 M after 48 hrs by sulforhodamine B assay; settings: BT-549, 48 h, read-out: Activity
COLO 205 = test: Growth inhibition of human COLO205 cells assessed as cell growth at 10^-8 M after 48 hrs by sulforhodamine B assay; settings: COLO 205, 48 h, read-out: Activity
MDA-MB-231 = test: Growth inhibition of human MDA-MB-231 cells assessed as cell growth at 10^-6 M after 48 hrs by sulforhodamine B assay; settings: MDA-MB-231, 48 h, read-out: Activity
HT-29 = test: Growth inhibition of human HT-29 cells assessed as cell growth at 10^-5 M after 48 hrs by sulforhodamine B assay; settings: HT-29, 48 h, read-out: Activity
NCI-H322M = test: Growth inhibition of human NCI-H322M cells assessed as cell growth at 10^-4 M after 48 hrs by sulforhodamine B assay; settings: read-out: Activity
SF-539 = test: Growth inhibition of human SF539 cells assessed as cell growth at 10^-8 M after 48 hrs by sulforhodamine B assay; settings: SF-539, 48 h, read-out: Activity
U-251 = test: Growth inhibition of human U251 cells assessed as cell growth at 10^-4 M after 48 hrs by sulforhodamine B assay; settings: U-251, 48 h, read-out: Activity
[16] = Growth inhibition of human Hs 578T cells assessed as cell growth at 10^-6 M after 48 hrs by sulforhodamine B assay; settings: read-out: Activity
NCI-H460 [17] = test: Growth inhibition of human NCI-H460 cells assessed as cell growth at 10^-4 M after 48 hrs by sulforhodamine B assay; settings: NCI-H460, 48 h, read-out: Activity
HCT-15 [18] = test: Growth inhibition of human HCT15 cells assessed as cell growth at 10^-8 M after 48 hrs by sulforhodamine B assay; settings: HCT-15, 48 h, read-out: Activity
MCF7 [19] = test: Growth inhibition of human MCF7 cells assessed as cell growth at 10^-5 M after 48 hrs by sulforhodamine B assay; settings: MCF7, 48 h, read-out: Activity
SN12C = test: Growth inhibition of human SN12C cells assessed as cell growth at 10^-6 M after 48 hrs by sulforhodamine B assay; settings: read-out: Activity
SNB-75 = test: Growth inhibition of human SNB75 cells assessed as cell growth at 10^-4 M after 48 hrs by sulforhodamine B assay; settings: SNB-75, 48 h, read-out: Activity
SK-MEL-5 = test: Growth inhibition of human SK-MEL-5 cells assessed as cell growth at 10^-7 M after 48 hrs by sulforhodamine B assay; settings: SK-MEL-5, 48 h, read-out: Activity
RXF 393 [20] = test: Growth inhibition of human RXF393 cells assessed as cell growth at 10^-4 M after 48 hrs by sulforhodamine B assay; settings: RXF 393, 48 h, read-out: Activity
UACC-257 = test: Growth inhibition of human UACC257 cells assessed as cell growth at 10^-5 M after 48 hrs by sulforhodamine B assay; settings: UACC-257, 48 h, read-out: Activity

Row | Compound | growth at 0.1 µM (HCT-15 [1]) | growth at 10 µM (HCT-15 [2]) | growth at 100 µM [3] | growth at 0.01 µM (MDA-MB-435 [4]) | growth at 0.01 µM (A498 [5]) | growth at 0.01 µM (A549) | growth at 0.01 µM (CCRF-CEM) | growth at 0.1 µM (UO-31) | growth at 0.1 µM (MDA-MB-435 [6]) | growth at 0.1 µM (A498 [7]) | growth at 0.01 µM (MDA-MB-468) | growth at 0.1 µM (OVCAR-8 [8]) | growth at 0.1 µM (RXF 393 [9]) | growth at 100 µM (MDA-MB-435 [10]) | growth at 10 µM (MOLT-4) | growth at 0.01 µM (SR [11]) | growth at 1 µM (SK-MEL-28) | growth at 0.1 µM (NCI-H226) | growth at 1 µM (OVCAR-8 [12]) | growth at 1 µM (MCF7 [13]) | also measured
1 | COc1cc(-c2nn(-c3cccc(NC(=O)c4ccccc4)c3)cc2-c2ccncc2)ccc1Cl | 96% | 17% | -13% | 96% | 92% | 96% | 97% | 81% | 80% | 89% | 90% | 105% | 113% | -67% | 18% | 94% | 60% | 96% | 50% | 17% | growth at 10 µM (SR [14]): 2%; growth at 0.1 µM (NCI-H460 [15]): 99%; growth at 0.1 µM (BT-549): 88%; growth at 0.01 µM (COLO 205): 100%; growth at 1 µM (MDA-MB-231): 53%; growth at 10 µM (HT-29): 7%; growth at 100 µM (NCI-H322M): 34%; growth at 0.01 µM (SF-539): 91%; growth at 100 µM (U-251): -18%; growth at 1 µM [16]: 52%; growth at 100 µM (NCI-H460 [17]): 5%; growth at 0.01 µM (HCT-15 [18]): 97%; growth at 10 µM (MCF7 [19]): 10%; growth at 1 µM (SN12C): 64%; growth at 100 µM (SNB-75): 11%; growth at 0.1 µM (SK-MEL-5): 91%; growth at 100 µM (RXF 393 [20]): -8%; growth at 10 µM (UACC-257): 29%
2 | COc1cc(-c2nn(-c3cccc(NC(=O)c4ccc(N5CCOCC5)c(C(F)(F)F)c4)c3)cc2-c2ccncc2)ccc1Cl | 65% | 7% | -46% | 90% | 90% | 94% | 94% | 64% | -4% | 77% | 95% | 91% | 78% | -34% | 9% | 91% | 56% | 87% | 30% | 18% | growth at 10 µM (SR [14]): 4%; growth at 0.1 µM (NCI-H460 [15]): 88%; growth at 0.1 µM (BT-549): 95%; growth at 0.01 µM (COLO 205): 106%; growth at 1 µM (MDA-MB-231): 18%; growth at 10 µM (HT-29): -43%; growth at 100 µM (NCI-H322M): -1%; growth at 0.01 µM (SF-539): 93%; growth at 100 µM (U-251): -59%; growth at 1 µM [16]: 6%; growth at 100 µM (NCI-H460 [17]): 1%; growth at 0.01 µM (HCT-15 [18]): 98%; growth at 10 µM (MCF7 [19]): 8%; growth at 1 µM (SN12C): 51%; growth at 100 µM (SNB-75): 2%; growth at 0.1 µM (SK-MEL-5): 53%; growth at 100 µM (RXF 393 [20]): -27%; growth at 10 µM (UACC-257): -5%
